Test results as given in patent US20080081039A1, “Inorganic Selenium For Treatment Of Cancer” (priority 2004, published 2008).
Read-outs that look alike come from different tables or passages of the source.

Tests used:
PC-3 cells [1] = assay: MTT growth assay; type: cell-based, human
Protocol: MTT Growth Assays involved plating 1×10^3 PC-3 cells per well in a 96 well plate and allowing the cells to attach overnight. […] The controls for this experiment received an equal volume of LY294002 diluent (DMSO). MTT growth assays were then performed according to the manufacturer's protocol (Sigma).

PC-3 cells [2] = settings: 0.25 mM, 54 hours
Protocol: BrdU Incorporation assays and immunofluorescence were carried out by plating 2.5×10^3 PC-3 cells and allowing them to attach overnight. […] Cells were incubated for a further 16 hours, then washed 3× in PBS and fixed in 4% PFA for 10 minutes at room temperature.
Mouse monoclonal anti-BrdU and antibodies were used as the primary antibodies and anti-mouse 488 Alexa, as the secondary antibodies. The percentage of cells incorporating BrdU was determined by counting the number of green staining nuclei per number of DAPI positive cells. 100 DAPI positive cells were counted per coverslip and the experiment performed in triplicate.

GFP-FKHR fusion protein = assay: GFP-FKHR cellular localization in transfected PC-3 cells; type: cell-based, human; settings: LY294002 50 μM 1 hour; sodium selenate or selenomethionine 0.5 mM 3 hours
Protocol: The day before transfection, 5×10^5 PC-3 cells were seeded in 24-well dishes and transiently transfected with 0.8 μg of pcDNA3-GFP-FKHRwt construct (kind gift Dr Bill Sellers, Dana-Farber Institute, Boston) using Lipofectamine 2000 (Invitrogen). Cells were permeabilized in 0.2% Triton X-100 and the nuclear contents stained with DAPI. Coverslips were mounted with fluorescent mounting medium (DAKO). The cellular distribution of green fluorescence was determined in dual fluorescent cells using a Leica epifluorescent microscope.
Reintroducing PTEN function in such cells induces translocation of FKHR to the nucleus eventually causing G1 arrest in PTEN-null cells (Nakamura et al 2000, supra).

PC-3 cells [3] = settings: 5 weeks, vs controls
Protocol: Animal experimentation involved the use of BALB/c nude mice. On day one of the experiment 6 week old BALB/c nude mice were anaesthetized with an intraperitoneal injection of ketamine 100 mg/kg and xylazine 20 mg/kg. Under magnification 1×10^6 PC-3 cells with viability greater than 95%, were injected into the dorsolateral prostate, essentially as described in Corcoran, N. M., Najdovska, M., and Costello, A. J. (2004), J. Urol., 171:907-910.
On day 3 of the experiment all mice were switched to the D19101 minimal selenium diet with an assayed selenium content of 0.07 ppm (Research Diets Inc., New Brunswick, N.J., USA). […] After 5 weeks of supplementation mice were culled and tumor-containing prostate glands were then weighed and measured with a Vernier calliper. The retroperitonium was then explored under magnification cephadally to the level of the renal veins and lymph nodes measuring greater than 0.5 mm identified.
The degree of apoptosis in tissue samples was determined using an in situ TUNEL Cell Death Detection Kit (Roche Applied Science) according to the manufacture's instructions. The number of brown staining cells at high power (×400) were counted in 10 randomly chosen fields in areas where necrosis was absent on H&E staining of adjacent sections.
The rate of tumor cell proliferation was determined by in vivo BrdU incorporation. Two hours prior to culling, the mice were injected with 50 mg/kg BrdU (Sigma) intraperitoneally. 5 μm sections were cut, fixed in absolute methanol at 4° C. for 10 minutes. Sections were rehydrated in PBS and incubated in 2 N HCl for 1 hour at 37° C. to denature the DNA. The acid was neutralized by immersing the slides in 0.1 M borate buffer (pH 8.5). Following 3×PBS washes the samples were incubated with a monoclonal antibody to bromodeoxyuridine (BrdU) (Roche Applied Science) at a concentration of 5 μg/mL diluted in 0.1% BSA in PBS for 1 hour at room temperature, then overnight at 4° C. Samples were washed 3× times in PBS and incubated for 1 hour with a biotinylated link immunoglobulin mixture (DAKO Corporation). […] 10 fields at high power (×400) were chosen at random and the number of brown staining cells counted.

[4] = test system: human kidney epithelial Q293 cells; assay: Cell growth curve of Q293 cells, Trypan Blue; type: cell-based; settings: selenate 5 μM, LY294002 10 μM, 9 days
Protocol: Q293 cells are a human kidney epithelial cell line routinely cultured in DMEM media (Invitrogen) in 5% foetal calf serum and 1% antibiotic/antimycotic mixture (Invitrogen).
(§1) Between 5×10^4 (FIGS. 1-2) and 1×10^5 LNCaP, CSS LNCaP or Q293 cells were allowed to attach overnight. […] Supernatants and cells were then harvested, combined and viable cells assessed by Trypan Blue exclusion assay. Experiments were performed in triplicate.

Akt = assay: Activation of Akt by different selenium compounds in PC-3 cells, immunoblot; type: cell-based, human; settings: serum starved PC-3 cells
From the text: Signal intensities from the developed films were scanned and intensities of active Akt correlated to total Akt levels were plotted.

[5] = test system: androgen sensitive LNCaP cells; settings: for androgen sensitive NS LNCaP cell proliferation: 5 μM, 9 days
Protocol: Cells were harvested at 72 hours following addition of the compounds and cell counts of viable cells as assessed by Trypan Blue staining were determined.
Cells were harvested at the indicated periods following addition of the compounds and cell counts of viable cells as assessed by Trypan Blue staining were determined.
The parental androgen-sensitive LNCaP cell line was obtained from the American Type Culture Collection (Manassas, Va., USA) and routinely cultured in […] (Invitrogen) supplemented with 10% foetal calf serum and 1% antibiotic/antimycotic mixture (Invitrogen). Cells were maintained at 37° C. in 5% CO2. To select androgen independent LNCaP cells LNCaPs were cultured in […] (Invitrogen) in 5% Charcoal stripped serum (CSS) (Invitrogen) which has removed all detectable traces of testosterone, for 6-8 weeks and obtained LNCaP cell lines which were now able to freely proliferate in the absence of testosterone. These cells are referred to as CSS LNCaPs.
as §1

With `O=[Se](=O)(O)O` [sodium selenate] the “PC-3 cell proliferation (MTT proliferative index)” value (PC-3 cells [1]; 0.25 and 0.5 mM, 72 hour) was “markedly reduced”, the “proliferative inhibition with added LY294002” value (PC-3 cells [1]; high dose sodium selenate plus LY294002, 72 hours) was “not enhanced by LY294002” and the “PC-3 cell number (MTT)” value (PC-3 cells [1]; lowest dose 0.01 mM) was “slight, but reproducible boost in cell number”. The “G1/S progression (BrdU/FrdU positive nuclei)” value (PC-3 cells [2]) was “severely impeded”, the “relocalization of GFP-FKHR from the cytoplasm to the nucleus” value (GFP-FKHR fusion protein) was “marked relocalization” and the “number of retroperitoneal lymph nodes” value (PC-3 cells [3]; 5 ppm in drinking water, lymph nodes greater than 0.5 mm) was “significantly decreased”. For the same molecule, the “BrdU incorporation in prostate tumors” value (PC-3 cells [3]; 5 ppm in drinking water) was “significantly impaired”, the “apoptosis (Tunel assay) in prostate tumors” value (PC-3 cells [3]; 5 ppm in drinking water) was “not significantly different” and the tumor volume difference (PC-3 cells [3]; 5 ppm in drinking water) was “just failed to reach significance”. For the same molecule, the “primary tumor growth assessed by the prostate weight index” value (PC-3 cells [3]; 5 ppm selenium as sodium selenate in drinking water) was “significantly inhibit”, the Q293 cell proliferation ([4]; CSS media (androgen ablation)) was “does not significantly effect” and the Q293 cell proliferation ([4]; normal serum) was “does not significantly effect”. The “activation of Akt (phosphorylated Akt relative to total Akt)” value (Akt; 125 μM, 6 hours) was “inhibits activation of Akt”, the “activation of Akt at high dose” value (Akt; 500 μM, 1 hour) was “inhibited activation of Akt” and the “androgen sensitive NS LNCaP cell proliferation” value ([5]; absence of androgen (charcoal stripped serum)) was “synergizes with androgen ablation to markedly reduce”. The “androgen sensitive NS LNCaP cell proliferation” value ([5]; presence of androgen (normal serum)) was “markedly reduces” and the “parental LNCaP cell proliferation” value ([5]; 50 μM, 72 hours, presence or absence of androgen) was “synergizes with androgen ablation to reduce”.
